The text below walks through data of patent publication US20230279025A1, “KRAS G12D INHIBITORS” (Mirati Therapeutics, Inc., priority 2020, published 2023).

Assay [1] addresses T1, KRas G12D (Homo sapiens (Human), UniProt P01116, G12D). Nature of the assay: KRas G12D Surface Plasmon Resonance (SPR) Binding Assay. The conditions noted are these: Biacore T200, immobilized biotinylated KRAS protein, 1:1 binding model.
Target sequence in this assay (P01116-2 other isoform, or with tags, fused parts or gaps G12D): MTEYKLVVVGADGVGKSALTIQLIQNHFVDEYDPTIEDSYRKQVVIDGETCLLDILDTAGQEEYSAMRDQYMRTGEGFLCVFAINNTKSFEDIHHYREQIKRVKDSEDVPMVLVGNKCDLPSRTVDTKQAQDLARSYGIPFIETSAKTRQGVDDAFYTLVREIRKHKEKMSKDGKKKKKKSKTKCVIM
The target of assay [2] is T1, KRas G12D. Kind of assay: KRas G12D Binding Assay (TR-FRET displacement of Cy5 labelled tracer). The conditions noted are these: GDP-loaded KRAS G12D (amino acids 1:169), 60 minute incubation at 22° C. On the procedure: After a 60 minute incubation at 22° C., the reaction was measured using a PerkinElmer EnVision multimode plate reader via TR-FRET dual wavelength detection, and the percent of control (POC) calculated using a ratiometric emission factor. […] The POC values were fit to a 4-parameter logistic curve and the IC50 value was determined as the concentration where the curve crosses 50 POC.
ND stands for “not determined.”
Target sequence in this assay (P01116 other isoform, or with tags, fused parts or gaps G12D): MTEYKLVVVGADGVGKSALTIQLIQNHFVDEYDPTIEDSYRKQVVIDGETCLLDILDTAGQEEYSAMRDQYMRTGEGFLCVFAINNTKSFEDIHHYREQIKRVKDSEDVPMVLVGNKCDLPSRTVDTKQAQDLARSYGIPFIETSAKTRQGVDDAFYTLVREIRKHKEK

In turn, `Cn1ccnc1CCOc1nc(N2C[C@H]3CC[C@@H](C2)N3)c2cnc(-c3cccc4ccccc34)c(F)c2n1` [Example 94, 4-((1R,5S)-3,8-diazabicyclo[3.2.1]octan-3-yl)-8-fluoro-2-(2-(1-methyl-1H-imidazol-2-yl)ethoxy)-7-(naphthalen-1-yl)pyrido[4,3-d]pyrimidine] showed an equilibrium dissociation constant (Kd) on KRas G12D [1] of 7.46 µM. Moreover, at KRas G12D [2], the IC50 is 3.65 µM.

In turn, `Cn1cncc1COc1nc(N2C[C@H]3CC[C@@H](C2)N3)c2cnc(-c3cc(O)cc4ccccc34)c(F)c2n1` [Example 95, 4-(4-((1R,5S)-3,8-diazabicyclo[3.2.1]octan-3-yl)-8-fluoro-2-((1-methyl-1H-imidazol-5-yl)methoxy)pyrido[4,3-d]pyrimidin-7-yl)naphthalen-2-ol] returned a dissociation constant (Kd) on KRas G12D [1] of 1.13 µM. This molecule also showed an IC50 on KRas G12D [2] of 0.561 µM.

At KRas G12D [1], `Oc1cc(-c2ncc3c(N4C[C@H]5CC[C@@H](C4)N5)nc(OCCc4ccccc4)nc3c2F)c2ccccc2c1` [Example 96, 4-(4-((1R,5S)-3,8-diazabicyclo[3.2.1]octan-3-yl)-8-fluoro-2-phenethoxypyrido[4,3-d]pyrimidin-7-yl)naphthalen-2-ol] registered a Kd of 0.71 µM. The half-inhibitory concentration (IC50) on KRas G12D [2] worked out at 2.22 µM.

On KRas G12D [1], `Fc1c(-c2cccc3cccc(Cl)c23)ncc2c(N3C[C@H]4CC[C@@H](C3)N4)nc(OC[C@@H]3CCCN3Cc3ccccc3)nc12` [Example 97, 2-(((S)-1-benzylpyrrolidin-2-yl)methoxy)-4-((1R,5S)-3,8-diazabicyclo[3.2.1]octan-3-yl)-7-(8-chloronaphthalen-1-yl)-8-fluoropyrido[4,3-d]pyrimidine] yielded an equilibrium dissociation constant (Kd) of 5.92 µM. Moreover, the concentration for half-maximal inhibition (IC50) at KRas G12D [2] came out at 0.934 µM.

`Oc1cc(-c2ncc3c(N4C[C@H]5CC[C@@H](C4)N5)nc(OCc4cccnc4)nc3c2F)c2ccccc2c1` [Example 99, 4-(4-((1R,5S)-3,8-diazabicyclo[3.2.1]octan-3-yl)-8-fluoro-2-(pyridin-3-ylmethoxy)pyrido[4,3-d]pyrimidin-7-yl)naphthalen-2-ol]: the Kd at KRas G12D [1] worked out at 0.897 µM. This molecule also registered an IC50 on KRas G12D [2] of 0.624 µM.

Regarding `Cc1cccc2cccc(-c3ncc4c(N5C[C@H]6CC[C@@H](C5)N6)nc(OCCc5nccn5C)nc4c3F)c12` [Example 100, 4-((1R,5S)-3,8-diazabicyclo[3.2.1]octan-3-yl)-8-fluoro-2-(2-(1-methyl-1H-imidazol-2-yl)ethoxy)-7-(8-methylnaphthalen-1-yl)pyrido[4,3-d]pyrimidine], binding at KRas G12D [1] was characterised by a dissociation constant (Kd) of 1.09 µM. Besides, at KRas G12D [2], the IC50 worked out at 1.95 µM.

At KRas G12D [1], `Cc1cccc2cccc(-c3ncc4c(N5C[C@H]6CC[C@@H](C5)N6)nc(OCCc5cccnc5)nc4c3F)c12` [Example 101, 4-((1R,5S)-3,8-diazabicyclo[3.2.1]octan-3-yl)-8-fluoro-7-(8-methylnaphthalen-1-yl)-2-(2-(pyridin-3-yl)ethoxy)pyrido[4,3-d]pyrimidine] showed a dissociation constant (Kd) of 12 µM. Further, the IC50 on KRas G12D [2] was determined as 8.08 µM.

For `Oc1cc(-c2ncc3c(N4C[C@H]5CC[C@@H](C4)N5)nc(OCCc4ccc(F)cn4)nc3c2F)c2ccccc2c1` [Example 102, 4-(4-((1R,5S)-3,8-diazabicyclo[3.2.1]octan-3-yl)-8-fluoro-2-(2-(5-fluoropyridin-2-yl)ethoxy)pyrido[4,3-d]pyrimidin-7-yl)naphthalen-2-ol], the Kd at KRas G12D [1] came to 0.259 µM. The same molecule displayed an IC50 at KRas G12D [2] of 0.0958 µM.

For `Cn1ccnc1COc1nc(N2C[C@H]3CC[C@@H](C2)N3)c2cnc(-c3cc(O)cc4ccccc34)c(F)c2n1` [Example 104, 4-(4-((1R,5S)-3,8-diazabicyclo[3.2.1]octan-3-yl)-8-fluoro-2-((1-methyl-1H-imidazol-2-yl)methoxy)pyrido[4,3-d]pyrimidin-7-yl)naphthalen-2-ol], the dissociation constant Kd at KRas G12D [1] stood at 0.362 µM. The same molecule displayed an IC50 on KRas G12D [2] of 1.68 µM.

For `COc1nc(N2C[C@H]3CC[C@@H](C2)N3)c2cnc(-c3cc(O)cc4ccccc34)c(F)c2n1` [Example 105, 4-(4-((I R,5S)-3,8-diazabicyclo[3.2.1]octan-3-yl)-8-fluoro-2-methoxypyrido[4,3-d]pyrimidin-7-yl)naphthalen-2-ol], the dissociation constant (Kd) at KRas G12D [1] turned out to be 2.26 µM. Further, the IC50 on KRas G12D [2] came to 0.867 µM.

In turn, `Oc1cc(-c2ncc3c(N4C[C@H]5CC[C@@H](C4)N5)nc(OCCc4cccnc4)nc3c2F)c2ccccc2c1` [Example 106, 4-(4-((1R,5S)-3,8-diazabicyclo[3.2.1]octan-3-yl)-8-fluoro-2-(2-(pyridin-3-yl)ethoxy)pyrido[4,3-d]pyrimidin-7-yl)naphthalen-2-ol] returned a dissociation constant Kd at KRas G12D [1] of 0.0535 µM. In addition, the IC50 on KRas G12D [2] worked out at 0.156 µM.

Take `CN(C)CCOc1nc(N2C[C@H]3CC[C@@H](C2)N3)c2cnc(-c3cccc4cccc(Cl)c34)c(F)c2n1` [Example 107, 2-((4-((I R,5S)-3,8-diazabicyclo[3.2.1]octan-3-yl)-7-(8-chloronaphthalen-1-yl)-8-fluoropyrido[4,3-d]pyrimidin-2-yl)oxy)-N,N-dimethylethan-1-amine]: the Kd at KRas G12D [1] was 1.44 µM. At KRas G12D [2], this molecule registered a half-inhibitory concentration (IC50) of 2.12 µM.

On KRas G12D [1], `Fc1c(-c2cccc3ccccc23)ncc2c(N3C[C@H]4CC[C@@H](C3)N4)nc(OC[C@@H]3CCCN3Cc3ccccc3)nc12` [Example 108, 2-(((S)-1-benzylpyrrolidin-2-yl)methoxy)-4-((1R,5S)-3,8-diazabicyclo[3.2.1]octan-3-yl)-8-fluoro-7-(naphthalen-1-yl)pyrido[4,3-d]pyrimidine] returned a Kd of 63.5 µM. On KRas G12D [2], this molecule yielded a half-inhibitory concentration (IC50) of 4.84 µM.

Regarding `Oc1cc(-c2ncc3c(N4C[C@H]5CC[C@@H](C4)N5)nc(OCC45CCCN4CCC5)nc3c2F)c2ccccc2c1` [Example 109, 4-(4-((1R,5S)-3,8-diazabicyclo[3.2.1]octan-3-yl)-8-fluoro-2-((tetrahydro-1H-pyrrolizin-7a(5H)-yl)methoxy)pyrido[4,3-d]pyrimidin-7-yl)naphthalen-2-ol bis(2,2,2-trifluoroacetate)], on KRas G12D [1], the dissociation constant (Kd) is over 500 µM. The half-inhibitory concentration (IC50) on KRas G12D [2] is 0.0005 µM.

The molecule `Cn1cncc1CCOc1nc(N2C[C@H]3CC[C@@H](C2)N3)c2cnc(-c3cc(O)cc4ccccc34)c(F)c2n1` [Example 110, 4-(4-((1R,5S)-3,8-diazabicyclo[3.2.1]octan-3-yl)-8-fluoro-2-(2-(1-methyl-1H-imidazol-5-yl)ethoxy)pyrido[4,3-d]pyrimidin-7-yl)naphthalen-2-ol] displayed a dissociation constant (Kd) at KRas G12D [1] of 0.0423 µM. In addition, at KRas G12D [2], the IC50 was found to be 0.0575 µM.

In turn, `Cn1ccnc1CCNc1nc(N2C[C@H]3CC[C@@H](C2)N3)c2cnc(-c3cc(O)cc4ccccc34)c(F)c2n1` [Example 111, 4-(4-((1R,5S)-3,8-diazabicyclo[3.2.1]octan-3-yl)-8-fluoro-2-((2-(1-methyl-1H-imidazol-2-yl)ethyl)amino)pyrido[4,3-d]pyrimidin-7-yl)naphthalen-2-ol] returned a Kd on KRas G12D [1] of 0.276 µM. In addition, the IC50 at KRas G12D [2] turned out to be 0.281 µM.

Consider `Cn1ccnc1CCOc1nc(N2C[C@H]3CC[C@@H](C2)N3)c2cnc(-c3cccc4ccc(F)cc34)c(F)c2n1` [Example 112, 4-((1R,5S)-3,8-diazabicyclo[3.2.1]octan-3-yl)-8-fluoro-7-(7-fluoronaphthalen-1-yl)-2-(2-(1-methyl-1H-imidazol-2-yl)ethoxy)pyrido[4,3-d]pyrimidine], for which, on KRas G12D [1], the Kd was 0.983 µM. This molecule also showed an IC50 on KRas G12D [2] of 0.718 µM.

For `Fc1c(-c2cccc3cccc(Cl)c23)ncc2c(N3C[C@H]4CC[C@@H](C3)N4)nc(OCCc3cccnc3)nc12` [Example 113, 4-((1R,5S)-3,8-diazabicyclo[3.2.1]octan-3-yl)-7-(8-chloronaphthalen-1-yl)-8-fluoro-2-(2-(pyridin-3-yl)ethoxy)pyrido[4,3-d]pyrimidine], on KRas G12D [1], binding was characterised by a dissociation constant (Kd) of 2.5 µM. The molecule further gave a half-maximal inhibitory concentration (IC50) on KRas G12D [2] of 2.87 µM.

Take `Cn1ccnc1CCOc1nc(N2C[C@H]3CC[C@@H](C2)N3)c2cnc(-c3cccc4cccc(Cl)c34)c(F)c2n1` [Example 114, 4-((I R,5S)-3,8-diazabicyclo[3.2.1]octan-3-yl)-7-(8-chloronaphthalen-1-yl)-8-fluoro-2-(2-(1-methyl-1H-imidazol-2-yl)ethoxy)pyrido[4,3-d]pyrimidine]: the affinity at KRas G12D [1], expressed as Kd, was 0.384 µM. The 50% inhibitory concentration (IC50) at KRas G12D [2] was 0.482 µM.

Consider `CN1C[C@H](F)C[C@H]1COc1nc(N2C[C@H]3CC[C@@H](C2)N3)c2cnc(-c3cccc4cccc(Cl)c34)c(F)c2n1` [Example 115, 4-((1R,5S)-3,8-diazabicyclo[3.2.1]octan-3-yl)-7-(8-chloronaphthalen-1-yl)-8-fluoro-2-(((2S,4R)-4-fluoro-1-methylpyrrolidin-2-yl)methoxy)pyrido[4,3-d]pyrimidine], for which the dissociation constant Kd on KRas G12D [1] is 333 µM. This molecule also gave an IC50 on KRas G12D [2] of 0.174 µM.

`Cc1cccc2cccc(-c3cc4nc(OC[C@@H]5CCCN5C)nc(N5C[C@H]6CC[C@@H](C5)N6)c4cn3)c12` [Example 116, 4-((1R,5S)-3,8-diazabicyclo[3.2.1]octan-3-yl)-7-(8-methylnaphthalen-1-yl)-2-(((S)-1-methylpyrrolidin-2-yl)methoxy)pyrido[4,3-d]pyrimidine]: binding on KRas G12D [1] was put at a Kd of 3.63 µM. The same molecule showed an IC50 at KRas G12D [2] of 1.44 µM.

With `CN1CCC[C@H]1COc1nc(N2C[C@H]3CC[C@@H](C2)N3)c2cnc(-c3cccc4cccc(CCC#N)c34)c(F)c2n1` [Example 117, 3-(8-(4-((1R,5S)-3,8-diazabicyclo[3.2.1]octan-3-yl)-8-fluoro-2-(((S)-1-methylpyrrolidin-2-yl)methoxy)pyrido[4,3-d]pyrimidin-7-yl)naphthalen-1-yl)propanenitrile bis(2,2,2-trifluoroacetate)], at KRas G12D [1], the Kd came out at 1 µM. The molecule further gave a concentration for half-maximal inhibition (IC50) on KRas G12D [2] of 0.732 µM.

The molecule `Oc1cc(-c2ncc3c(N4C[C@H]5CC[C@@H](C4)N5)nc(N4CCCC4)nc3c2F)c2ccccc2c1` [Example 118, 4-(4-((1R,5S)-3,8-diazabicyclo[3.2.1]octan-3-yl)-8-fluoro-2-(pyrrolidin-1-yl)pyrido[4,3-d]pyrimidin-7-yl)naphthalen-2-ol 2,2,2-trifluoroacetate] came in with a Kd at KRas G12D [1] of 1.06 µM. Besides, on KRas G12D [2], the IC50 is 0.477 µM.
